Results: patent US6048853A, “1-arylphthalazine antagonists of excitatory amino acid receptors” (Bearsden Bio, Inc., priority 1996, dated 2000)
Like-named read-outs stand apart in the source and are kept apart here.

Columns and labels:
Male NIH Swiss mice = assay: Maximum Electro Shock (MES) Seizure Test; assay type: in vivo
Protocol: This test is to determine the extent of protection by a test compound in a seizure model. This model is described by Rogawski et al. (Epilepsy Research, 15:179-184, 1993). Male NIH Swiss mice (25-30 g) were injected ip with the test drug. […] Animals failing to show tonic hind limb extension were scored as protected. Compounds may be selected which are active in this model.
The results of this assay using compounds prepared as described in Examples 49, 50 and 102 are shown below in Table 2.

Mice = assay: Subcutaneous Metrazol (scMET) Seizure Test; assay type: in vivo; settings: dose 3 mg/kg; time 0.5 hr; Metrazol 90 mg/kg sc
Protocol: This test is to determine the extent of protection by a test compound in a seizure model. The method used is that of Chen et al. (Proc. Soc. Exp. Biol. Med., 87:334, 1954). Mice are randomly assigned to vehicle or treatment groups of 3-10 animals per group and then dosed accordingly. Metrazol (pentylenetetrazol) 90 mg/kg is administered subcutaneously (sc) at different time points (0.25, 0.5, 1, 2, 4 hr) after the treatment or control groups. The mice individually housed in clear runs and observed for the presence or absence of clonic seizure activity (>5 s duration) for 30 min after metrazol dosing. A compound is considered active if no seizure is observed. Data is analyzed using aquantal measure (protection/number tested).
The results of this assay using compounds prepared as described in Examples 49 and 50 are shown below in Table 3.

rat [1] = settings: compared with NBQX; cited from earlier work
rat [2] = settings: cited from earlier work

For `Nc1ccc(-c2nncc3cc4c(cc23)OCO4)cc1` [Example 49, 1-(4-Aminophenyl)-6,7-methylendioxyphthalazine], which “MES Score (protected/no. tested)” value (Male NIH Swiss mice; dose 3 mg/kg ip, time 0.5 hours) is on record?
The value was 1/1.

What about the “MES Score (protected/no. tested)” value (Male NIH Swiss mice; dose 15 mg/kg ip, time 2 hours) of the same compound?
Its value is 2/4.

And the “scMET Score (protect./no. tested)” value (Mice)?
The value was 1/5.

Which results are given for `Cc1nnc(-c2ccc(N)cc2)c2cc3c(cc12)OCO3` [Example 50, 4-(4-Aminophenyl)-1-methyl-6,7-methylenedioxyphthalazine]?
MES Score (protected/no. tested) (Male NIH Swiss mice; dose 1 mg/kg ip, time 4 hours): 1/7; scMET Score (protect./no. tested) (Mice): 1/5

With `CC(=O)Nc1ccc(-c2nnc(C)c3cc4c(cc23)OCO4)cc1` [Example 102, 4-(4-acetylaminophenyl)-1-methyl-6,7-methylenedioxyphthalazine] as the compound, how does the “MES Score (protected/no. tested)” value (Male NIH Swiss mice; dose 100 mg/kg ip, time 4 hours) read?
The value was 3/3.

Which “efficacy in global ischemia model” value (rat [1]) does the source give for `CC1=NN=C(c2ccc(N)cc2)c2cc3c(cc2C1)OCO3` [GYKI 52466] here?
Its value is “as effective as the glutamate site competitive antagonist NBQX”.

What about the “reduction of cortical infarct volume” value (rat [2]; given continuously for 2 hours just after occlusion) of the same compound?
Its value is 68%.

What about the “reduction of cortical infarct volume” value (rat [2]; given one hour after occlusion) of the same compound?
Its value is 48%.
